Test results: patent US20190077795A1, “ARGININE […] INHIBITORS AND USES THEREOF” (Epizyme, Inc., priority 2014, published 2019)

Assays:
[1] = target: T1, human PRMT1 (Homo sapiens, UniProt Q99873); experiment: PRMT1 Biochemical Assay; settings: peptide substrate, 3H-SAM Flashplate assay; read-out: PRMT1 IC50
T1 construct: GST-tagged PRMT1; made in house; host or cells: High Five insect cells (baculovirus, pFastBac1)
From the text: (§1) S-adenosylmethionine (SAM), S-adenosylhomocysteine (SAH), bicine, Tween20, dimethylsulfoxide (DMSO), bovine skin gelatin (BSG), and Tris(2-carboxyethyl)phosphine hydrochloride solution (TCEP) were purchased from Sigma-Aldrich at the highest level of purity possible. ^3H-SAM was purchase from American Radiolabeled Chemicals with a specific activity of 80 Ci/mmol. 384-well streptavidin Flashplates were purchased from PerkinElmer.
Recombinant baculovirus were generated according to Bac-to-Bac kit instructions (Life Technologies). […] Infections were carried out at 27° C. for 48 hours, harvested by centrifugation, and stored at −80° C. for purification.
GST-tagged PRMT1 was eluted with 50 mM Tris, 2 mM glutathione, pH 7.8, dialysed in buffer A and concentrated to 1 mg/mL.
General Procedure for PRMT1 Enzyme Assays on Peptide Substrates.
(§2) The assays were all performed in a buffer consisting of 20 mM Bicine (pH=7.6), 1 mM TCEP, 0.005% BSG, and 0.002% Tween 20, prepared on the day of use. […] DMSO (1 ul) was added to Columns 11, 12, 23, 24, rows A-H for the maximum signal control and 1 ul of SAH, a known product and inhibitor of PRMT1, was added to columns 11, 12, 23, 24, rows I-P for the minimum signal control. A cocktail (40 ul) containing the PRMT1 enzyme was added by Multidrop Combi (Thermo-Fisher). The compounds were allowed to incubate with PRMT1 for 30 min at room temperature, then a cocktail (10 ul) containing SAM and peptide was added to initiate the reaction (final volume=51 ul). […] The assays were stopped by the addition of non-radiolabeled SAM (10 ul) to a final concentration of 300 uM, which dilutes the ^3H-SAM to a level where its incorporation into the peptide substrate is no longer detectable. 50 ul of the reaction in the 384-well polypropylene plate was then transferred to a 384-well Flashplate and the biotinylated peptides were allowed to bind to the streptavidin surface for at least 1 hour before being washed once with 0.1% Tween20 in a Biotek ELx405 plate washer. The plates were then read in a PerkinElmer TopCount plate reader to measure the quantity of ^3H-labeled peptide bound to the Flashplate surface, measured as disintegrations per minute (dpm) or alternatively, referred to as counts per minute (cpm).
(§3) Where dpm=disintegrations per minute, cmpd=signal in assay well, and min and max are the respective minimum and maximum signal controls.
(§4) Where top and bottom are the normally allowed to float, but may be fixed at 100 or 0 respectively in a 3-parameter fit. The Hill Coefficient normally allowed to float but may also be fixed at 1 in a 3-parameter fit. Y is the % inhibition and X is the compound concentration.

[2] = target: T2, human PRMT6 (Homo sapiens, UniProt Q96LA8); experiment: PRMT6 Biochemical Assay; settings: peptide substrate, 3H-SAM Flashplate assay; read-out: PRMT6 IC50
T2 construct: Flag-PRMT6-His; made in house; host or cells: HEK 293F cells (BacMam baculovirus, pFastBacMam)
T2 sequence (Q96LA8 with tags, fused parts or gaps): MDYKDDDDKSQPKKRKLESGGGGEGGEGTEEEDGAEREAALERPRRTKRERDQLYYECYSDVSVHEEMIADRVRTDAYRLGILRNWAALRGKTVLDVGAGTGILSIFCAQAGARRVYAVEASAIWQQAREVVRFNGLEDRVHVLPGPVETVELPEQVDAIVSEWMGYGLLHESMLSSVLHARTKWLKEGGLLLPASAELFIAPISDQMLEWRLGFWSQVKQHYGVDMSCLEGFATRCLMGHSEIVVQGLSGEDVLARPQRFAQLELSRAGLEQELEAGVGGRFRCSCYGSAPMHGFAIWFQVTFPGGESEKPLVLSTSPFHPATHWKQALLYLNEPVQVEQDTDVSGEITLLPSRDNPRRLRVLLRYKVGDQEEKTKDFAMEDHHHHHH
From the text: as §1, with “(BSG), sodium butyrate” for “(BSG),”
Peptide representative of human histone H4 residues 36-50 was synthesized with an N-terminal linker-affinity tag motif and a C-terminal amide cap by 21st Century Biochemicals.
The amplified gene was subcloned into pFastBacMam (Viva Biotech).
Recombinant baculovirus were generated according to Bac-to-Bac kit instructions (Life Technologies). […] Infections were carried out at 37° C. for 48 hours, harvested by centrifugation, and stored at −80° C. for purification.
Column was washed with 20 mM imidazole in the same buffer and Flag-PRMT6-His was eluted with 150 mM imidazole. Pooled fractions were dialysed against buffer Ni-A and further purified by anti-flag M2 affinity chromatography. Flag-PRMT6-His was eluted with 200 ug/ml FLAG peptide in the same buffer. Pooled fractions were dialysed in 20 mM Tris, 150 mM NaCl, 10% glycerol and 5 mM β-mercaptoethanol, pH 7.8.
General Procedure for PRMT6 Enzyme Assays on Peptide Substrates.
as §2, with “PRMT6,” for “PRMT1,”, “PRMT6” for “PRMT1”, “400” for “300”
as §3, §4

[3] = tested on: mono-methyl arginine in RKO cells; experiment: RKO Methylation Assay, In Cell Western (ICW); assay type: cell-based; settings: 72 hours
From the text: RKO adherent cells were purchased from ATCC (American Type Culture Collection), Manassas, Va., USA. DMEM/Glutamax medium, penicillin-streptomycin, heat inactivated fetal bovine serum, 0.05% trypsin and D-PBS were purchased from Life Technologies, Grand Island, N.Y., USA. Odyssey blocking buffer, 800CW goat anti-rabbit IgG (H+L) antibody, and Licor Odyssey infrared scanner were purchased from Licor Biosciences, Lincoln, Nebr., USA. Mono-methyl arginine antibody was purchased from Cell Signaling Technology, Danvers, Mass., USA. Methanol was purchased from VWR, Franklin, Mass., USA. 10% Tween 20 was purchased from KPL, Inc., Gaithersburg, Md., USA. DRAQ5 was purchased from Biostatus Limited, Leicestershire, UK.
RKO adherent cells were maintained in growth medium (DMEM/Glutamax medium supplemented with 10% v/v heat inactivated fetal bovine serum and 100 units/mL penicillin-streptomycin) and cultured at 37° C. under 5% CO2.
Cell treatment, In Cell Western (ICW) for detection of mono-methyl arginine and DNA content.
Compound (100 nL) from a 96-well source plate was added directly to 384 well cell plate. Plates were incubated at 37° C., 5% CO2 for 72 hours. After three days of incubation, plates were brought to room temperature outside of the incubator for ten minutes and blotted on paper towels to remove cell media. 50 μL of ice cold 100% methanol was added directly to each well and incubated for 30 min at room temperature. After 30 min, plates were transferred to a Biotek EL406 plate washer and washed 2 times with 100 μL per well of wash buffer (1×PBS). Next 60 μL per well of Odyssey blocking buffer (Odyssey Buffer with 0.1% Tween 20 (v/v)) were added to each plate and incubated 1 hour at room temperature. Blocking buffer was removed and 20 μL per well of primary antibody was added (mono-methyl arginine diluted 1:200 in Odyssey buffer with 0.1% Tween 20 (v/v)) and plates were incubated overnight (16 hours) at 4° C. Plates were washed 5 times with 100 μL per well of wash buffer. […] The plates were washed 5 times with 100 μL per well wash buffer then 2 times with 100 μL per well of water. Plates were allowed to dry at room temperature then imaged on the Licor Odyssey machine which measures integrated intensity at 700 nm and 800 nm wavelengths. Both 700 and 800 channels were scanned.
First, the ratio for each well was determined by:
Each plate included fourteen control wells of DMSO only treatment (minimum activation) as well as fourteen control wells for maximum activation treated with 20 μM of a reference compound. The average of the ratio values for each control type was calculated and used to determine the percent activation for each test well in the plate. Reference compound was serially diluted three-fold in DMSO for a total of nine test concentrations, beginning at 20 μM. Percent activation was determined and EC30 curves were generated using triplicate wells per concentration of compound.

[4] = target: human PRMT8 (Homo sapiens, UniProt Q9NR22); experiment: PRMT8 Biochemical Assay; settings: PRMT8 IC50 (uM), peptide substrate, 3H-SAM Flashplate assay
human PRMT8, sequence (Q9NR22 whole entry): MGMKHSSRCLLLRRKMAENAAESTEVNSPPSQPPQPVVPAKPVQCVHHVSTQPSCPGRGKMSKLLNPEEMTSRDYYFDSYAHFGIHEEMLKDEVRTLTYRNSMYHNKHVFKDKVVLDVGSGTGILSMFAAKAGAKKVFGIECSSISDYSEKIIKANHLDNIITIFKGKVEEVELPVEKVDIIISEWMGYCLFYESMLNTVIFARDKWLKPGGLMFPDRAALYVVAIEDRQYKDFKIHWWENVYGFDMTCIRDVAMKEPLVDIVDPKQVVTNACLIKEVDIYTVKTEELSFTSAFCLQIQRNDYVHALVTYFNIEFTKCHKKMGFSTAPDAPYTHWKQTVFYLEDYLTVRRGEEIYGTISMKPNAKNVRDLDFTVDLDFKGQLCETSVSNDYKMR

T1 sequence (Q99873 with tags, fused parts or gaps): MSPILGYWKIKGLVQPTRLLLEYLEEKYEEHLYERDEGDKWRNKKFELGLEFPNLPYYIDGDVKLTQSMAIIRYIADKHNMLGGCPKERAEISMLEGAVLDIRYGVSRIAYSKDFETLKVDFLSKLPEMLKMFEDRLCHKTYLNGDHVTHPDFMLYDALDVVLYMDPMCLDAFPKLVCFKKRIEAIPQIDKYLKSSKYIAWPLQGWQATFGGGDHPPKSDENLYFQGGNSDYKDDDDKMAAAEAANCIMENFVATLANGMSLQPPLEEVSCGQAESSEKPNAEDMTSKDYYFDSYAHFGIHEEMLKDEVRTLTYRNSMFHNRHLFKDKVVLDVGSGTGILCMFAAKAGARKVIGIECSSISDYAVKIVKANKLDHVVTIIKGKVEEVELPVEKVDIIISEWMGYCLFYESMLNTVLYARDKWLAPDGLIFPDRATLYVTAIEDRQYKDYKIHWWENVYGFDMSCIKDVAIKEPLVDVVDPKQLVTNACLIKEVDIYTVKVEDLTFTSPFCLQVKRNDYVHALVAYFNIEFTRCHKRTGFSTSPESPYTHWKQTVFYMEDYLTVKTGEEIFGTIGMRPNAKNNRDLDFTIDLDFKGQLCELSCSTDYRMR

For `CNCCN(C)Cc1c[nH]nc1-c1ccc(OCCOc2ccc(C(C)C)cc2)cc1` [Compound 144], the IC50 [1] was 0.00643 µM, the IC50 [2] was 0.00574 µM and the “ICW EC30” value [3] was 0.6546 µM. The IC50 [4] was 0.03 µM.
`CNCCN(C)Cc1c[nH]nc1-c1ccc(OC2CCC(OCCOC)CC2)cc1` (stereo not drawn) [Compound 98] was tested, and the IC50 [1] was 0.0285 µM, the IC50 [2] was 0.0289 µM and the “ICW EC30” value [3] was 0.8685 µM. For the same compound, the IC50 [4] was 0.113 µM.
For `CCC(CO)Oc1cc(-c2n[nH]cc2CN(C)CCNC)cc(C(F)(F)F)c1` (stereo not drawn) [Compound 106], the IC50 [1] was 0.034 µM, the IC50 [2] was 3.51 µM and the “ICW EC30” value [3] was 3.7 µM. It also gave an IC50 [4] of 0.201 µM.
In the case of `CNCCN(C)Cc1c[nH]nc1-c1ccc(N(C)CCCOc2ccc(OC)cc2)cc1` [Compound 136], the IC50 [1] is reported as 0.00521 µM, the IC50 [2] is reported as 0.00825 µM and the “ICW EC30” value [3] is reported as 0.1762 µM. The IC50 [4] was 0.0124 µM.
In the case of `CNCCN(C)Cc1n[nH]cc1-c1cc(C(=O)C(C)C)cc(C(F)(F)F)c1` [Compound 134], the IC50 [1] is reported as 0.121 µM, the IC50 [2] is reported as 2.07 µM and the “ICW EC30” value [3] is reported as over 6.7 µM. It also gave an IC50 [4] of 0.168 µM.
For `CNCCN(C)Cc1c[nH]nc1-c1cc(OCCOC)cc(OC(F)(F)F)c1` [Compound 96], the IC50 [1] was 0.0267 µM, the IC50 [2] was 5.13 µM and the “ICW EC30” value [3] was 1.762 µM. For the same compound, the IC50 [4] was 0.108 µM.
`CNCCN(C)Cc1c[nH]nc1-c1cc(OCCOC)cc(C(C)C)c1` [Compound 95] was tested, and the IC50 [1] was 0.0258 µM, the IC50 [2] was 0.771 µM and the “ICW EC30” value [3] was 0.726 µM. The IC50 [4] was 0.0843 µM.
For `CNCCN(C)Cc1c[nH]nc1-c1ccc(OC2CCC(OC(C)C)CC2)cc1` (stereo not drawn) [Compound 89], the IC50 [1] was 0.0231 µM, the IC50 [2] was 0.0251 µM and the “ICW EC30” value [3] was 0.4491 µM. The IC50 [4] was 0.0475 µM.
In the case of `CNCCN(C)Cc1c[nH]nc1-c1ccc(OC(COc2ccccc2)COc2ccccc2)cc1` [Compound 146], the IC50 [1] is reported as 0.00732 µM, the IC50 [2] is reported as 0.00624 µM and the “ICW EC30” value [3] is reported as 1.403 µM. The IC50 [4] was 0.0375 µM.
`CN(CCN)Cc1c[nH]nc1-c1ccc(N2CCOCC2)cc1` [Compound 124] was tested, and the IC50 [1] was 0.0443 µM, the IC50 [2] was 0.107 µM and the “ICW EC30” value [3] was 3.978 µM. For the same compound, the IC50 [4] was 0.413 µM.
With `CNCCN(C)Cc1c[nH]nc1-c1cc(OCCOC)cc(C(C)(C)C)c1` [Compound 109] the IC50 [1] was 0.0361 µM, the IC50 [2] was 7.12 µM and the “ICW EC30” value [3] was 1.928 µM. The IC50 [4] was 0.203 µM.
For `CNCCN(C)Cc1c[nH]nc1-c1ccc(OCCCS(C)(=O)=O)cc1` [Compound 128], the IC50 [1] was 0.0464 µM, the IC50 [2] was 0.0343 µM and the “ICW EC30” value [3] was 13.334 µM. The IC50 [4] was 0.131 µM.
With `CNCCN(C)Cc1c[nH]nc1-c1ccc(N2CC3CCCC3C2)nc1` (stereo not drawn) [Compound 58] the IC50 [1] was 0.0119 µM, the IC50 [2] was 0.00835 µM and the “ICW EC30” value [3] was 0.4165 µM. For the same compound, the IC50 [4] was 0.0254 µM.
`CNCCN(C)Cc1c[nH]nc1-c1ccc(OCCOc2ccc(OC)cc2)cc1` [Compound 135] was tested, and the IC50 [1] was 0.00585 µM, the IC50 [2] was 0.00405 µM and the “ICW EC30” value [3] was 0.086 µM. For the same compound, the IC50 [4] was 0.0336 µM.
In the case of `CNCCN(C)Cc1c[nH]nc1-c1ccc(OCCOc2ccc(Oc3ccc(OCCOC)cc3)cc2)cc1` [Compound 15], the IC50 [1] is reported as 0.00579 µM, the IC50 [2] is reported as 0.00238 µM and the “ICW EC30” value [3] is reported as 0.2201 µM. It also gave an IC50 [4] of 0.0193 µM.
In the case of `CNCCN(C)Cc1c[nH]nc1-c1ccc(OCCOc2cccc(C(O)CO)c2)cc1` (stereo not drawn) [Compound 148], the IC50 [1] is reported as 0.00822 µM, the IC50 [2] is reported as 0.00632 µM and the “ICW EC30” value [3] is reported as 8.688 µM. It also gave an IC50 [4] of 0.0398 µM.
`CNCCN(C)Cc1ccnn1-c1ccc(OCC2CC2)cc1` [Compound 75] was tested, and the IC50 [1] was 0.0162 µM, the IC50 [2] was 0.0495 µM and the “ICW EC30” value [3] was 0.5381 µM. It also gave an IC50 [4] of 0.0487 µM.
For `CNCCN(C)Cc1c[nH]nc1-c1ccc(OCCOc2ccc(OC(C)C)cc2)cc1` [Compound 33], the IC50 [1] was 0.00737 µM, the IC50 [2] was 0.00562 µM and the “ICW EC30” value [3] was 0.232 µM. The IC50 [4] was 0.0233 µM.
`CNCCN(C)Cc1c[nH]nc1-c1ccc(OCCOc2cccc(C(C)C)c2)cc1` [Compound 62] was tested, and the IC50 [1] was 0.0129 µM, the IC50 [2] was 0.00431 µM and the “ICW EC30” value [3] was 1.378 µM. It also gave an IC50 [4] of 0.0363 µM.
With `CNCCN(C)Cc1c[nH]nc1-c1ccc(OCCOc2cccnn2)cc1` [Compound 90] the IC50 [1] was 0.0243 µM, the IC50 [2] was 0.0199 µM and the “ICW EC30” value [3] was 2.491 µM. It also gave an IC50 [4] of 0.117 µM.
In the case of `CNCCN(C)Cc1c[nH]nc1-c1ccc(OC2CCC(OC)CC2)cc1` (stereo not drawn) [Compound 86], the IC50 [1] is reported as 0.0225 µM, the IC50 [2] is reported as 0.0196 µM and the “ICW EC30” value [3] is reported as 0.836 µM. For the same compound, the IC50 [4] was 0.0686 µM.
